The values that follow come from PMC7915858, “Complementary Effects of Carbamylated and Citrullinated LL37 in Autoimmunity and Inflammation in Systemic Lupus Erythematosus” (International Journal of Molecular Sciences, 2021).

For one test, the system named is human DNA. The test is described as follows: Binding of peptides to DNA by EMSA. To be noted: 2% agarose gel. The protocol: Human DNA was extracted from PBMCs, as reported and was fragmented by sonication. Five milligrams of DNA in a volume of 300 μL were fragmented using the Sonics Vibra Cell sonicator (Newtown, CT, USA), with the following settings: 2, 4 and 10 sonication cycles (30 s on, 30 s off, in ice) to obtain DNA fragment sizes between 100 and 1000 bp. The resulting size distribution was controlled by 2% agarose gel electrophoresis.
EMSA was performed by mixing various μM concentrations of LL37 or carb-LL37 or cit-LL37 (or AMP S100A8, as negative control), with appropriate concentration of DNA, which respected the appropriate protein–DNA ratio used in pDC-stimulation assays. DNA alone and the mixtures were run on a 2% agarose gel to evidence the delay in migration of the DNA, due to the binding to the tested proteins. DNA on the gel was visualized by with SYBR Safe DNA gel staining (ThermoFisher Scientific).

In test [1] the test system is native LL37-P1-specific T-cells (HLA-DRB1*1501 tetramer). The conditions noted are these: SLE PBMC culture, tetramers of HLA-DR1, HLA-DR15 or HLA-DRB5; cited from earlier work. From the text: We have performed here similar experiments in SLE patients expressing the HLA-DR15 (HLA-DRB1*1501) and/or the DR16 alleles. Since both HLA-DR15- and HLA-DR16-positive individuals co-express DRB5 [[2 ...

Regarding “L*LGDFFRK*SK*EK*IGKEFK*RIVQRIK*DFLRNLVPRTES [carb-LL37]”, the “Concentration at which DNA binding ability is lost” value in the test with human DNA was determined as 3 µM. Besides, the DNA binding ability entry in the test with human DNA (3-to-5 experiments) is reported as “does not completely abolish the LL37 DNA binding ability”.

In the case of “LLGDFFR(cit)KSKEKIGKEFKR(cit)IVQR(cit)IKDFLR(cit)NLVPR(cit)TES [cit-LL37, LL37 citrullinated at all five arginine sites]”, in test [1], the “Expansion of T-cells specific for both cit-LL37 and native LL37 epitopes” value was “able to expand T-cells specific for both the cit-LL37 and the native LL37 epitopes”.
